System: sugarcane, variety RB 81-5156 (plant-cane)
Assay: Evaluation of carfentrazone-ethyl as a sugarcane ripener (field trial, stems harvested 0-45 DAA; % POL, % BRIX, % PURITY)
Type: in vivo
Conditions: average of four replications
Experimental: The following example further illustrates the present invention, but, of course, should not be construed as in any way limiting its scope. The example includes a protocol for the evaluation of certain PPO-inhibiting compounds as ripeners on sugarcane crops, and sets forth certain data indicating the effectiveness of such compounds. Yield is measured in % POL, which is the percent saccharose content in the pressed broth or the cane. Purity and % BRIX (defined as total sugar content including glucose, fructose, saccharose and minerals) are also measures of crop yield, although the saccharose content is of primary concern.
The trial was performed on sugarcane, variety RB 81-5156 (plant-cane). The sugarcane was planted with spacing of 1.40 m between rows, using 30 kg/ha of N; 100 kg/ha of P2O5 and 80 gk/ha of K2O as basic fertilizers, complemented by a covering application of 30 kg/ha of N.
The application of ripeners was performed with pressurized back-pack sprayers, with flat fan nozzle 110.01. The flow was 65 l/ha and the pressure was 35 lb/in^2.
The experimental design used randomized plots with 6 treatments and 4 replications. The size of each experimental plot was 126 m^2 (6 spacing lines of 1.40 m per 15 m of length).
The climatic conditions at the time of the ripener applications were: average temperature of 27° C.; air relative humidity of 73%, wind speed of 4 km/hour.
One linear meter of stems was harvested in each experimental plot at 0 (zero), 15, 30 and 45 days after application (DAA) of the ripener. The sugar was extracted from these stems and submitted for GC and refractometer analysis of percent saccharose, glucose, fructose and minerals corresponding to % POL, % BRIX and % PURITY.
The results, shown as an average of four replications, were compared with results observed in the same trials with trinexapac-ethyl (Moddus).

## CCOC(=O)C(Cl)Cc1cc(-n2nc(C)n(C(F)F)c2=O)c(F)cc1Cl (stereo not drawn) [Carfentrazone-ethyl, ethyl α,2-dichloro-5-[4-(difluoromethyl)-4,5-dihydro-3-methyl-5-oxo-1H-1,2,4-triazol-1-yl]-4-fluorobenzenepropanoate]
30 g ai/ha, 0 DAA
  % BRIX in Pressed Broth of Sugarcane Crop after Application of Ripeners: 14.80%
  % POL in Pressed Broth of Sugarcane Crop after Application of Ripeners: 11.90%
  % POL in the Cane of Sugarcane Crop after Application of Ripeners: 10.38%
  % PURITY in Pressed Broth of Sugarcane Crop after Application of Ripeners: 78.48%
30 g ai/ha, 15 DAA
  % BRIX in Pressed Broth of Sugarcane Crop after Application of Ripeners: 15.40%
  % POL in Pressed Broth of Sugarcane Crop after Application of Ripeners: 12.35%
  % POL in the Cane of Sugarcane Crop after Application of Ripeners: 10.68%
  % PURITY in Pressed Broth of Sugarcane Crop after Application of Ripeners: 79.10%
30 g ai/ha, 30 DAA
  % BRIX in Pressed Broth of Sugarcane Crop after Application of Ripeners: 16.15%
  % POL in Pressed Broth of Sugarcane Crop after Application of Ripeners: 12.75%
  % POL in the Cane of Sugarcane Crop after Application of Ripeners: 10.75%
  % PURITY in Pressed Broth of Sugarcane Crop after Application of Ripeners: 79.50%
30 g ai/ha, 45 DAA
  % BRIX in Pressed Broth of Sugarcane Crop after Application of Ripeners: 16.40%
  % POL in Pressed Broth of Sugarcane Crop after Application of Ripeners: 12.20%
  % POL in the Cane of Sugarcane Crop after Application of Ripeners: 10.75%
  % PURITY in Pressed Broth of Sugarcane Crop after Application of Ripeners: 79.35%
40 g ai/ha, 0 DAA
  % BRIX in Pressed Broth of Sugarcane Crop after Application of Ripeners: 14.50%
  % POL in Pressed Broth of Sugarcane Crop after Application of Ripeners: 12.55%
  % POL in the Cane of Sugarcane Crop after Application of Ripeners: 10.38%
  % PURITY in Pressed Broth of Sugarcane Crop after Application of Ripeners: 78.90%
40 g ai/ha, 15 DAA
  % BRIX in Pressed Broth of Sugarcane Crop after Application of Ripeners: 15.50%
  % POL in Pressed Broth of Sugarcane Crop after Application of Ripeners: 13.18%
  % POL in the Cane of Sugarcane Crop after Application of Ripeners: 10.63%
  % PURITY in Pressed Broth of Sugarcane Crop after Application of Ripeners: 80.28%
40 g ai/ha, 30 DAA
  % BRIX in Pressed Broth of Sugarcane Crop after Application of Ripeners: 16.98%
  % POL in Pressed Broth of Sugarcane Crop after Application of Ripeners: 13.70%
  % POL in the Cane of Sugarcane Crop after Application of Ripeners: 10.98%
  % PURITY in Pressed Broth of Sugarcane Crop after Application of Ripeners: 81.20%
40 g ai/ha, 45 DAA
  % BRIX in Pressed Broth of Sugarcane Crop after Application of Ripeners: 16.90%
  % POL in Pressed Broth of Sugarcane Crop after Application of Ripeners: 13.58%
  % POL in the Cane of Sugarcane Crop after Application of Ripeners: 11.00%
  % PURITY in Pressed Broth of Sugarcane Crop after Application of Ripeners: 81.43%
60 g ai/ha, 0 DAA
  % BRIX in Pressed Broth of Sugarcane Crop after Application of Ripeners: 14.60%
  % POL in Pressed Broth of Sugarcane Crop after Application of Ripeners: 12.55%
  % POL in the Cane of Sugarcane Crop after Application of Ripeners: 10.63%
  % PURITY in Pressed Broth of Sugarcane Crop after Application of Ripeners: 79.35%
60 g ai/ha, 15 DAA
  % BRIX in Pressed Broth of Sugarcane Crop after Application of Ripeners: 15.20%
  % POL in Pressed Broth of Sugarcane Crop after Application of Ripeners: 13.58%
  % POL in the Cane of Sugarcane Crop after Application of Ripeners: 11.38%
  % PURITY in Pressed Broth of Sugarcane Crop after Application of Ripeners: 81.85%
60 g ai/ha, 30 DAA
  % BRIX in Pressed Broth of Sugarcane Crop after Application of Ripeners: 17.75%
  % POL in Pressed Broth of Sugarcane Crop after Application of Ripeners: 14.50%
  % POL in the Cane of Sugarcane Crop after Application of Ripeners: 12.45%
  % PURITY in Pressed Broth of Sugarcane Crop after Application of Ripeners: 83.15%
60 g ai/ha, 45 DAA
  % BRIX in Pressed Broth of Sugarcane Crop after Application of Ripeners: 17.45%
  % POL in Pressed Broth of Sugarcane Crop after Application of Ripeners: 14.35%
  % POL in the Cane of Sugarcane Crop after Application of Ripeners: 12.38%
  % PURITY in Pressed Broth of Sugarcane Crop after Application of Ripeners: 83.15%
80 g ai/ha, 0 DAA
  % BRIX in Pressed Broth of Sugarcane Crop after Application of Ripeners: 14.50%
  % POL in Pressed Broth of Sugarcane Crop after Application of Ripeners: 12.45%
  % POL in the Cane of Sugarcane Crop after Application of Ripeners: 10.80%
  % PURITY in Pressed Broth of Sugarcane Crop after Application of Ripeners: 80.05%
80 g ai/ha, 15 DAA
  % BRIX in Pressed Broth of Sugarcane Crop after Application of Ripeners: 15.80%
  % POL in Pressed Broth of Sugarcane Crop after Application of Ripeners: 14.08%
  % POL in the Cane of Sugarcane Crop after Application of Ripeners: 11.93%
  % PURITY in Pressed Broth of Sugarcane Crop after Application of Ripeners: 82.90%
80 g ai/ha, 30 DAA
  % BRIX in Pressed Broth of Sugarcane Crop after Application of Ripeners: 17.90%
  % POL in Pressed Broth of Sugarcane Crop after Application of Ripeners: 15.05%
  % POL in the Cane of Sugarcane Crop after Application of Ripeners: 13.25%
  % PURITY in Pressed Broth of Sugarcane Crop after Application of Ripeners: 84.45%
80 g ai/ha, 45 DAA
  % BRIX in Pressed Broth of Sugarcane Crop after Application of Ripeners: 17.80%
  % POL in Pressed Broth of Sugarcane Crop after Application of Ripeners: 15.30%
  % POL in the Cane of Sugarcane Crop after Application of Ripeners: 13.35%
  % PURITY in Pressed Broth of Sugarcane Crop after Application of Ripeners: 84.05%
100 g ai/ha, 0 DAA
  % BRIX in Pressed Broth of Sugarcane Crop after Application of Ripeners: 14.90%
  % POL in Pressed Broth of Sugarcane Crop after Application of Ripeners: 12.50%
  % POL in the Cane of Sugarcane Crop after Application of Ripeners: 10.98%
  % PURITY in Pressed Broth of Sugarcane Crop after Application of Ripeners: 81.85%
100 g ai/ha, 15 DAA
  % BRIX in Pressed Broth of Sugarcane Crop after Application of Ripeners: 15.30%
  % POL in Pressed Broth of Sugarcane Crop after Application of Ripeners: 14.70%
  % POL in the Cane of Sugarcane Crop after Application of Ripeners: 12.25%
  % PURITY in Pressed Broth of Sugarcane Crop after Application of Ripeners: 83.78%
100 g ai/ha, 30 DAA
  % BRIX in Pressed Broth of Sugarcane Crop after Application of Ripeners: 18.25%
  % POL in Pressed Broth of Sugarcane Crop after Application of Ripeners: 15.90%
  % POL in the Cane of Sugarcane Crop after Application of Ripeners: 13.83%
  % PURITY in Pressed Broth of Sugarcane Crop after Application of Ripeners: 86.05%
100 g ai/ha, 45 DAA
  % BRIX in Pressed Broth of Sugarcane Crop after Application of Ripeners: 18.60%
  % POL in Pressed Broth of Sugarcane Crop after Application of Ripeners: 15.75%
  % POL in the Cane of Sugarcane Crop after Application of Ripeners: 13.43%
  % PURITY in Pressed Broth of Sugarcane Crop after Application of Ripeners: 83.38%

## CCOC(=O)C1CC(=O)C(=C(O)C2CC2)C(=O)C1 (stereo not drawn) [trinexapac-ethyl, reference compound]
250 g ai/ha, 0 DAA
  % BRIX in Pressed Broth of Sugarcane Crop after Application of Ripeners: 14.93%
  % POL in Pressed Broth of Sugarcane Crop after Application of Ripeners: 12.75%
  % POL in the Cane of Sugarcane Crop after Application of Ripeners: 11.35%
  % PURITY in Pressed Broth of Sugarcane Crop after Application of Ripeners: 81.53%
250 g ai/ha, 15 DAA
  % BRIX in Pressed Broth of Sugarcane Crop after Application of Ripeners: 15.15%
  % POL in Pressed Broth of Sugarcane Crop after Application of Ripeners: 14.25%
  % POL in the Cane of Sugarcane Crop after Application of Ripeners: 12.53%
  % PURITY in Pressed Broth of Sugarcane Crop after Application of Ripeners: 83.73%
250 g ai/ha, 30 DAA
  % BRIX in Pressed Broth of Sugarcane Crop after Application of Ripeners: 17.85%
  % POL in Pressed Broth of Sugarcane Crop after Application of Ripeners: 15.80%
  % POL in the Cane of Sugarcane Crop after Application of Ripeners: 13.45%
  % PURITY in Pressed Broth of Sugarcane Crop after Application of Ripeners: 85.15%
250 g ai/ha, 45 DAA
  % BRIX in Pressed Broth of Sugarcane Crop after Application of Ripeners: 18.45%
  % POL in Pressed Broth of Sugarcane Crop after Application of Ripeners: 15.75%
  % POL in the Cane of Sugarcane Crop after Application of Ripeners: 14.20%
  % PURITY in Pressed Broth of Sugarcane Crop after Application of Ripeners: 84.78%
